Experimental data published in ChEMBL document CHEMBL5678818, “Discovery of potent SOS1 inhibitors that block RAS activation via disruption of the RAS-SOS1 interaction” (Proc Natl Acad Sci U S A, 2019).

What was measured:
[1] = target: T1, Serine/threonine-protein kinase STK11 (Homo sapiens) (UniProt Q15831); experiment: Inhibition of LKB1 (unknown origin) assessed as residual activity at 1000 nM by KINOMEscan analysis relative to control
T1 sequence (whole entry): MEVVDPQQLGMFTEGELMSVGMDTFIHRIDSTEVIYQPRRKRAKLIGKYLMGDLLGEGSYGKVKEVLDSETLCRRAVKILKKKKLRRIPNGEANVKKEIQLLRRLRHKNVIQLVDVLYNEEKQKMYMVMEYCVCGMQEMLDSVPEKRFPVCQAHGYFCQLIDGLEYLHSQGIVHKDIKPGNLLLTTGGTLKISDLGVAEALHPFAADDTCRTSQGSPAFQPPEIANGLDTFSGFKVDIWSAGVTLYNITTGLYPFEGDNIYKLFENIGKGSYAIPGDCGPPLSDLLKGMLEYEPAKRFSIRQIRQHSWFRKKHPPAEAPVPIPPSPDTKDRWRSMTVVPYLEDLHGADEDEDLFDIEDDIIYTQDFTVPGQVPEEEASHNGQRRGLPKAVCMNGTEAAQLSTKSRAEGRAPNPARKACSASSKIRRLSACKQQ

[2] = target: Vascular endothelial growth factor receptor 2 (Homo sapiens) (UniProt P35968); experiment: Inhibition of VEGFR2 (unknown origin) assessed as residual activity at 1000 nM by KINOMEscan analysis relative to control
[3] = target: Activated CDC42 kinase 1 (Homo sapiens) (UniProt Q07912); experiment: Inhibition of TNK2 (unknown origin) assessed as residual activity at 1000 nM by KINOMEscan analysis relative to control
[4] = target: T2, Inhibitor of nuclear factor kappa-B kinase subunit alpha (Homo sapiens) (UniProt O15111); experiment: Inhibition of IKK-alpha (unknown origin) assessed as residual activity at 1000 nM by KINOMEscan analysis relative to control
T2 sequence (whole entry): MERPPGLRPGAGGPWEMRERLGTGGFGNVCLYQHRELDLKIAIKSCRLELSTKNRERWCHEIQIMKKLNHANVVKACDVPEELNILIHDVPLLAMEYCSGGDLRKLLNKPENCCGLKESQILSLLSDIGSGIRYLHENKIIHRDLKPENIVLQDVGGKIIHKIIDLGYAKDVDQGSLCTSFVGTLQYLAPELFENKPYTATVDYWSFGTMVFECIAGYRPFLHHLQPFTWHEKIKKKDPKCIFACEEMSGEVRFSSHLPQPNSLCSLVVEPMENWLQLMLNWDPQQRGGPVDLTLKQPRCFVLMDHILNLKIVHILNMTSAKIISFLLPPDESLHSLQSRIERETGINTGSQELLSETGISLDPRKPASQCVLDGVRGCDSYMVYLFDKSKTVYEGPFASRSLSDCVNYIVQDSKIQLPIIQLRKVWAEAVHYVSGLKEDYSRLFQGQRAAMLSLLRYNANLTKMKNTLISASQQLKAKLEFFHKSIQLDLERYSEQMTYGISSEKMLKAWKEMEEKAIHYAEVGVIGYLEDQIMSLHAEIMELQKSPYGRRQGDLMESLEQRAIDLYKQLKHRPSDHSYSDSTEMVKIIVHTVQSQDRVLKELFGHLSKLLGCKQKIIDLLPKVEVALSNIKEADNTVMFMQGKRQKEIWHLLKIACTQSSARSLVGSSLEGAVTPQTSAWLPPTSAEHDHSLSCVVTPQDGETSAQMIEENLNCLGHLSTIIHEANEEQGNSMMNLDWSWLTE

[5] = test system: Epidermal growth factor receptor (Homo sapiens), P00533 [L858R]; experiment: Inhibition of EGFR L858R mutant (unknown origin) assessed as residual activity at 1000 nM by KINOMEscan analysis relative to control
[6] = target: Fibroblast growth factor receptor 1 (Homo sapiens) (UniProt P11362); experiment: Inhibition of FGFR1 (unknown origin) assessed as residual activity at 1000 nM by KINOMEscan analysis relative to control
[7] = target: Insulin-like growth factor 1 receptor (Homo sapiens) (UniProt P08069); experiment: Inhibition of IGF1R (unknown origin) assessed as residual activity at 1000 nM by KINOMEscan analysis relative to control
[8] = target: T3, Bone morphogenetic protein receptor type-2 (Homo sapiens) (UniProt Q13873); experiment: Inhibition of BMPR2 (unknown origin) assessed as residual activity at 1000 nM by KINOMEscan analysis relative to control
T3 sequence (whole entry): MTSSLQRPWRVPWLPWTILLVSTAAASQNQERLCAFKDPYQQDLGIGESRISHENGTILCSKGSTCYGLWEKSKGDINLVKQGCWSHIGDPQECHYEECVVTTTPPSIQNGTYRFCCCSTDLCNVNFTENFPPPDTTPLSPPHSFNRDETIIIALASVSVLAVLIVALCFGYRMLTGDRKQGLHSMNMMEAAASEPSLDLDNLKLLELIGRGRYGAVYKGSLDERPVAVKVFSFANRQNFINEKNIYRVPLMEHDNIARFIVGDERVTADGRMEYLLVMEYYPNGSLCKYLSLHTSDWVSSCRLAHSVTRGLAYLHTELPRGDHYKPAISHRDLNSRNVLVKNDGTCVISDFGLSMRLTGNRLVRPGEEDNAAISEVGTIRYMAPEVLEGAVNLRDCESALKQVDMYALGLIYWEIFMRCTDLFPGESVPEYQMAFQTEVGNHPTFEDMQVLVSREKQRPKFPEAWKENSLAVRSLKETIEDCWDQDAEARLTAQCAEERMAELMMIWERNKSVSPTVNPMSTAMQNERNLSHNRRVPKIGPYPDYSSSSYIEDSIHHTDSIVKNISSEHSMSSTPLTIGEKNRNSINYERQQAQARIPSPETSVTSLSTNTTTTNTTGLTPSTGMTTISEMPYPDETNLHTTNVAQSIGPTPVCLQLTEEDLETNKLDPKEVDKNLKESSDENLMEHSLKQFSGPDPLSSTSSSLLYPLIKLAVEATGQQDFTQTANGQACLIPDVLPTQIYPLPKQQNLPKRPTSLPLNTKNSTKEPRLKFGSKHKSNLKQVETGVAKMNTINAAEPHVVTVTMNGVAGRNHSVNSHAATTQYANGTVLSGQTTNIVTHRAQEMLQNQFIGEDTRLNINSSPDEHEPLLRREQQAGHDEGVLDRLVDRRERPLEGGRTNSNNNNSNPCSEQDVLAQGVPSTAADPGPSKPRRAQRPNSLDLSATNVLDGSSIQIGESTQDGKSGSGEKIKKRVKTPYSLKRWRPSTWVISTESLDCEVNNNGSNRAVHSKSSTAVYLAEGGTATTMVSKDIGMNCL

[9] = target: GTPase KRas (Homo sapiens) (UniProt P01116); experiment: Stabilization of N-terminal His10-tagged wild-type recombinant human KRAS (1 to 169 residues) expressed in Escherichia coli assessed as change in melting temperature at 100 uM with heating from 25 to 85 degreeC by thermal shift assay

Compound | Activity [1] | Activity [2] | Activity [3] | Activity [4] | Activity [5] | Activity [6] | Activity [7] | Activity [8] | ΔTm [9]
COc1cc2nc(C)nc(N[C@H](C)c3cccc(-c4cn[nH]c4)c3)c2cc1OC | 100% | 100% | 70% | 81% | 100% | 65% | 100% | 83% | 
CNCc1ccccc1-c1csc([C@@H](C)Nc2nc(C)nc3cc(OC)c(OC)cc23)c1 [BAY-293] |  |  |  |  |  |  |  |  | 0.23 °C
COc1cc2ncnc(N[C@H](C)c3cccc4ccccc34)c2cc1OC | 100% | 78% | 100% | 70% | 1.7% | 80% | 100% | 89% | -1.1 °C
